Key:
[1] = system: antigen-induced arthritis (knee joint); assay: Antigen-induced arthritis of rats: lateral joint diameter of the right knee joint after intraarticular injection; format: in vivo, rat (female Wistar); set-up: Joint diameter (right), Day 0: unit not given here; settings: for Joint diameter (right), Day 0: day 0, joint diameter before induction of arthritis (baseline); for Joint diameter (right), day 1, difference with respect to day 0 / Joint diameter (right), measured value on day 1: day 1 after induction; for Increase of joint diameter (right) from day 0 to day 1: day 1, increase after induction, before treatment takes effect
Procedure: The animal model employed, antigen-induced arthritis of rats, is a well established animal model which reflects the mechanisms of rheumatoid arthritis (RA) very well. […] Female Wistar rats are employed for this experiment. At an interval of one week, the animals are subcutaneously preimmunized with 0.1 mg of methylalbumin (mBSA) in Freund's complete adjuvant. Two weeks after the second immunization, 0.1 mg of mBSA is injected intraarticularly into the […] knee joint. This injection induces arthritis, which persists for weeks after an acute phase. One day after the induction of the arthritis, the treatment is begun with sulfated hyaluronic acid solution or with high molecular weight hyaluronic acid (MW=1,800 kD), which are injected intraarticularly into the knee joint. The immunization of the animals was effected at an interval of 7 days. In the first immunization, a total of four subcutaneous injections of 0.25 ml each (corresponding to 0.1 mg of methylalbumin in Freund's complete adjuvant) were effected on both sides of the vertebral column at the level of the shoulder blade and above the hip (each at about 1.5 cm distance from the spines of the vertebrae). In the 2nd immunization, 3 depots of 0.3 ml of solution each were introduced; one exactly between the two shoulder blades and two at the level of the abdomen on both sides paravertebrally. The induction of arthritis was effected two weeks after the 2nd immunization by […] injection of 0.05 ml each of a 10 mg/ml solution of mBSA in physiological saline into the respective right knee joint. On the day after induction of arthritis, 0.05 ml each of a formulation containing sulfated HA was injected into the right knee joint of the 20 animals of the experimental group (use of an insulin syringe, thin cannula, 0.35×40 mm). Thereafter, injection was effected once a week (long-term group). The lateral joint diameter of all animals was measured by means of a distance meter (Matatuyo) prior to and 1, 4 and 8 days after the induction of arthritis and then every week until the experiment was completed. The animals were also weighed each time. On the 7th day, 10 animals of the experimental group and 10 animals of the control group were killed. The animals were put down by ether anesthesia, and the sacrifice of the remaining animals was effected 1 week after the last injection of a formulation containing sulfated HA into the right knee joint.

[2] = system: antigen-induced arthritis (knee joint); assay: as above; format: in vivo, rat (female Wistar); settings: short-term experiment, 0.05 ml intraarticular on day 1
[3] = long-term experiment, intraarticular injection day 1, then once a week
[4] = short-term experiment, 0.05 ml intraarticular on day 1

Row | Substance | Joint diameter (right), Day 0 ([1]; long-term experiment) | Joint diameter (right), day 1, difference with respect to day 0 ([1]; long-term experiment) | Joint diameter (right), measured value on day 1 ([1]; long-term experiment) | Decrease or increase of joint diameter (right) after the injection on day 1, Day 4 [1, 3] | Decrease or increase of joint diameter (right) after the injection on day 1, Day 8 [1, 3] | Decrease or increase of joint diameter (right) after the injection on day 1, Day 15 [1, 3] | Decrease or increase of joint diameter (right) after the injection on day 1, Day 22 [1, 3] | Decrease or increase of joint diameter (right) after the injection on day 1, Day 29 [1, 3] | Decrease or increase of joint diameter (right) after the injection on day 1, Day 4 [1, 4] | Joint diameter (right), Day 0 ([1]; short-term experiment) | Increase of joint diameter (right) from day 0 to day 1 ([1]; short-term experiment) | Decrease or increase of joint diameter (right) after the injection on day 1, Day 8 [2] | Joint diameters (as a measure of the inflammatory swelling), result in words ([1]; long-term experiment over 3 weeks)
1 | hyaluronic acid [HA, reference compound] | 926.0 | +206 | 1132.9 | +27 | −97 | −140 | −144 | −134 | +18 | 913.2 | +206 | −45 | 
2 | sulfated hyaluronic acid [Sulfated HA] | 927.6 | +226 | 1153.9 | −4 | −127 | −203 | −212 | −231 | +20 | 867.4 | +228 | −118 | significant decrease of the joint diameters
